Source: ChEMBL document CHEMBL4043168, “The design and SAR of a novel series of 2-aminopyridine based LRRK2 inhibitors” (Bioorg Med Chem Lett, 2017)

Legend:
[1] = molecular target: 5'-AMP-activated protein kinase catalytic subunit alpha-1 (Homo sapiens) (UniProt Q13131); test: Inhibition of AMPKa1 ATP loop (IGHYILGDTLGVGTFGKVK) in human PBMC at 1 uM; conditions: pooled result: one value given for 5 cell lines, strains, targets or settings
[2] = molecular target: Mitogen-activated protein kinase 3 (Homo sapiens) (UniProt P27361); test: Inhibition of Erk1 ATP binding site (DLKPSNLLINTTCDLK) in human PBMC at 1 uM
Mitogen-activated protein kinase 3 (Homo sapiens), sequence (P27361 whole entry): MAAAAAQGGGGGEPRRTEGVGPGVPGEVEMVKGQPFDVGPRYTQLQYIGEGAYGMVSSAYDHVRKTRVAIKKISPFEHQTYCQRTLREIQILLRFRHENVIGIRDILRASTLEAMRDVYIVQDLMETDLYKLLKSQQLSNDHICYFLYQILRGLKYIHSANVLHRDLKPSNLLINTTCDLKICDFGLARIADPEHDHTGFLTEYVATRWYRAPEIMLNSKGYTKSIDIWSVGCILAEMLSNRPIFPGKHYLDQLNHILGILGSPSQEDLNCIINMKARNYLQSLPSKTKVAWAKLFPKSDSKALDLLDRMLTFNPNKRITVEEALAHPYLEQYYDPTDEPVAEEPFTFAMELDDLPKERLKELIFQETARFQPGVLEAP

[3] = molecular target: Mitogen-activated protein kinase 7 (Homo sapiens) (UniProt Q13164); test: Inhibition of Erk5 conserved Lys2 (DLKPSNLLVNENCELK) in human PBMC at 1 uM
Mitogen-activated protein kinase 7 (Homo sapiens), sequence (Q13164 2-816 limits assumed): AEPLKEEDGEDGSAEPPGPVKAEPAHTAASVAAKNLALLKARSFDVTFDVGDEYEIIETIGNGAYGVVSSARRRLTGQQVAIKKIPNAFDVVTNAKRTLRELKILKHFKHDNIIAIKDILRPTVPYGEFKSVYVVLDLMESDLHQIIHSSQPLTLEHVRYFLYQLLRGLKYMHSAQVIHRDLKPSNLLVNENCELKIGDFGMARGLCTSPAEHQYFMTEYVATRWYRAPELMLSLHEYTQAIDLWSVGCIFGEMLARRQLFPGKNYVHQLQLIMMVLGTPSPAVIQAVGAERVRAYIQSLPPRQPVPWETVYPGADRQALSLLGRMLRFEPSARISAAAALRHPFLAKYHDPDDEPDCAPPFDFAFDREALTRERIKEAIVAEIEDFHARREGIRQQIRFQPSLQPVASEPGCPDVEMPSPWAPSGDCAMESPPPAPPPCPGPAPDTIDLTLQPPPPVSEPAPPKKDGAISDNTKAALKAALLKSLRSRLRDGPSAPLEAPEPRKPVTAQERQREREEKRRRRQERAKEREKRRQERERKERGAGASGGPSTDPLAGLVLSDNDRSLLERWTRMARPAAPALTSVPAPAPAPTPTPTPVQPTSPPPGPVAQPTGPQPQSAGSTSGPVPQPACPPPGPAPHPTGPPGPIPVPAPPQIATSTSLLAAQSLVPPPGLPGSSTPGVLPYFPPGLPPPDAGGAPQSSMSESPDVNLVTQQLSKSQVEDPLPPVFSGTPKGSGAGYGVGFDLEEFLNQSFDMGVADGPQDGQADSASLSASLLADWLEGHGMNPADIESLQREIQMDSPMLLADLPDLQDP

[4] = molecular target: Mitogen-activated protein kinase 9 (Homo sapiens) (UniProt P45984); test: Inhibition of JNK2 conserved Lys2 (DLKPSNIVVK) in human PBMC at 1 uM
Mitogen-activated protein kinase 9 (Homo sapiens), sequence (P45984 whole entry, looked up): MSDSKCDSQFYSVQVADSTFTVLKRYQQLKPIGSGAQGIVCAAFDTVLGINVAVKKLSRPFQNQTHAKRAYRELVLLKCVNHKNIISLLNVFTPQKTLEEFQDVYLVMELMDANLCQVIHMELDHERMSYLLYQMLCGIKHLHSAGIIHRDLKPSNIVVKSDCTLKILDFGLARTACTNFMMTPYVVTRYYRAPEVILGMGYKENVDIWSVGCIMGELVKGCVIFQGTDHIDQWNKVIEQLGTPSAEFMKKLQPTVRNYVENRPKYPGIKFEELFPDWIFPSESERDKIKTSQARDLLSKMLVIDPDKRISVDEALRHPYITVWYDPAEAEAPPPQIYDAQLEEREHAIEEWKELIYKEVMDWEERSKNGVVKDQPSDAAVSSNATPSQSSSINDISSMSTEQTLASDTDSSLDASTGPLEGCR

[5] = molecular target: Dual specificity mitogen-activated protein kinase kinase 7 (Homo sapiens) (UniProt O14733); test: Inhibition of MAP2K7 conserved Lys2 (DVKPSNILLDER) in human PBMC at 1 uM
Dual specificity mitogen-activated protein kinase kinase 7 (Homo sapiens), sequence (O14733 whole entry): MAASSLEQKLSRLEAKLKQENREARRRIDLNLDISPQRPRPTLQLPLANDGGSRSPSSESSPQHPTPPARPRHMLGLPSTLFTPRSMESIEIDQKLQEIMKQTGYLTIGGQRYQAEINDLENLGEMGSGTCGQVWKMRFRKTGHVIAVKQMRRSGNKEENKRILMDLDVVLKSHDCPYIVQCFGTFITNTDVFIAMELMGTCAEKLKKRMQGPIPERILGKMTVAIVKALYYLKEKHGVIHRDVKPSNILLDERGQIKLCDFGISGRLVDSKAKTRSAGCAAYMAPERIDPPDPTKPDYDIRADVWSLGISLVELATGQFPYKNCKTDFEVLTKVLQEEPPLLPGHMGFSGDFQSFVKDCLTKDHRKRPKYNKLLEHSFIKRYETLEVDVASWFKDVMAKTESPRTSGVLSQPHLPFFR

[6] = molecular target: MAP/microtubule affinity-regulating kinase 3 (Homo sapiens) (UniProt P27448); test: Inhibition of MARK3 conserved Lys2 (DLKAENLLLDADMNIK) in human PBMC at 1 uM
MAP/microtubule affinity-regulating kinase 3 (Homo sapiens), sequence (P27448 whole entry, looked up, the tested form may be a part): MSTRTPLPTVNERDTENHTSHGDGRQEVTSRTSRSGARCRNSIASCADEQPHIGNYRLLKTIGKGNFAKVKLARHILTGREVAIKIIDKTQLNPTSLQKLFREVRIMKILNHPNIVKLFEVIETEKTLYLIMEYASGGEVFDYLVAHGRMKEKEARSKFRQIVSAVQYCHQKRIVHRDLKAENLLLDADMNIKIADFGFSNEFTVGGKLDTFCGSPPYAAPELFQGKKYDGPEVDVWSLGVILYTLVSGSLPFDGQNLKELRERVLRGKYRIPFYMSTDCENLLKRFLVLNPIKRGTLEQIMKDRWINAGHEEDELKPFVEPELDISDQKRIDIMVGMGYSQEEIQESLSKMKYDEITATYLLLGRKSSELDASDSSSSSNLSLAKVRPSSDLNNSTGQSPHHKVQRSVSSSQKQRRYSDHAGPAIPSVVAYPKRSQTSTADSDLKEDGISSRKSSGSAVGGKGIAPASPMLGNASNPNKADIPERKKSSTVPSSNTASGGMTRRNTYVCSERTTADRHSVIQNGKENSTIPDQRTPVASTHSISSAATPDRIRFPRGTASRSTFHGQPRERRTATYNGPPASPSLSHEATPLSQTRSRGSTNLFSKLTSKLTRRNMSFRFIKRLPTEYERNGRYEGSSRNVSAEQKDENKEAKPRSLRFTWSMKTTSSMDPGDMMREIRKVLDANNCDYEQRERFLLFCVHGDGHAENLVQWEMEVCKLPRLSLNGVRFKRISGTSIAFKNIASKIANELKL

[7] = molecular target: Ribosomal protein S6 kinase alpha-4 (Homo sapiens) (UniProt O75676); test: Inhibition of MSK2 domain1 conserved Lys2 (DIKLENILLDSNGHVVLTDFGLSK) in human PBMC at 1 uM
[8] = molecular target: T1, Serine/threonine-protein kinase 4 (Homo sapiens) (UniProt Q13043); test: Inhibition of MST1 conserved Lys2 (DIKAGNILLNTEGHAK) in human PBMC at 1 uM
T1 sequence (whole entry): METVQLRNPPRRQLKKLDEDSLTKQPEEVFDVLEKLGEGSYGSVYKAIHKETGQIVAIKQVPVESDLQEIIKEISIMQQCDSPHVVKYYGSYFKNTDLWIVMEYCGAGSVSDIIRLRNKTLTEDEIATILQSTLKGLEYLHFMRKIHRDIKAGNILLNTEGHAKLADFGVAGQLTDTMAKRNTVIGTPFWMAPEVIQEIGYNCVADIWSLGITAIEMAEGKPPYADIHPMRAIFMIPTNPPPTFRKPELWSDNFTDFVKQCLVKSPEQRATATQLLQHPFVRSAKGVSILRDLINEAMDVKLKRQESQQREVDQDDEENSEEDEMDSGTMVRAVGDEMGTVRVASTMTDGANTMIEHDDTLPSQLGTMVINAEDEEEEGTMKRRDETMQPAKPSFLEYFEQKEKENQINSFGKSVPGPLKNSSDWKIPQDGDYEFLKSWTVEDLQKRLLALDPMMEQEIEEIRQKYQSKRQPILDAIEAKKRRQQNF

[9] = molecular target: Serine/threonine-protein kinase Nek1 (Homo sapiens) (UniProt Q96PY6); test: Inhibition of NEK1 conserved Lys2 (DIKSQNIFLTK) in human PBMC at 1 uM
[10] = molecular target: NUAK family SNF1-like kinase 2 (Homo sapiens) (UniProt Q9H093); test: Inhibition of NuaK2 conserved Lys1 (LVAIKSIR) in human PBMC at 1 uM
NUAK family SNF1-like kinase 2 (Homo sapiens), sequence (Q9H093 whole entry, the tested form may be a part): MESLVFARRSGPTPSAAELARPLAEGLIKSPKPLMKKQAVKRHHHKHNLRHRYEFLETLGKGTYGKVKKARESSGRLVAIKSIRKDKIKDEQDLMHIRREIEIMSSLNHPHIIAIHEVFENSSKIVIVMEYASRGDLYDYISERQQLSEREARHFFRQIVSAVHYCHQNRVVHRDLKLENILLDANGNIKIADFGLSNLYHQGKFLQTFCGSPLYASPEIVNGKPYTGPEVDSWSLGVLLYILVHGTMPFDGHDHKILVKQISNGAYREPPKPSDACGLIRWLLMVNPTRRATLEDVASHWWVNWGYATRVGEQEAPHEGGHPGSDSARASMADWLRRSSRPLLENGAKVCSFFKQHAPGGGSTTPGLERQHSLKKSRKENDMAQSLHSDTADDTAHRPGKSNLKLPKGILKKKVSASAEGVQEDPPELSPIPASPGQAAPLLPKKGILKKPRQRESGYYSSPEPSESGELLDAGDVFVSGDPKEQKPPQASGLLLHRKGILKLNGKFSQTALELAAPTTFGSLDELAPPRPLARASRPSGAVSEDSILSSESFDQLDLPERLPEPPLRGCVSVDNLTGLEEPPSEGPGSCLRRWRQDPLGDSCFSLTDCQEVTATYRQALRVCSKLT

[11] = molecular target: Ribosomal protein S6 kinase alpha-3 (Homo sapiens) (UniProt P51812); test: Inhibition of RSK2 domain1 activation Loop (LTDFGLSKESIDHEKK) in human PBMC at 1 uM
Ribosomal protein S6 kinase alpha-3 (Homo sapiens), sequence (P51812 whole entry, the tested form may be a part): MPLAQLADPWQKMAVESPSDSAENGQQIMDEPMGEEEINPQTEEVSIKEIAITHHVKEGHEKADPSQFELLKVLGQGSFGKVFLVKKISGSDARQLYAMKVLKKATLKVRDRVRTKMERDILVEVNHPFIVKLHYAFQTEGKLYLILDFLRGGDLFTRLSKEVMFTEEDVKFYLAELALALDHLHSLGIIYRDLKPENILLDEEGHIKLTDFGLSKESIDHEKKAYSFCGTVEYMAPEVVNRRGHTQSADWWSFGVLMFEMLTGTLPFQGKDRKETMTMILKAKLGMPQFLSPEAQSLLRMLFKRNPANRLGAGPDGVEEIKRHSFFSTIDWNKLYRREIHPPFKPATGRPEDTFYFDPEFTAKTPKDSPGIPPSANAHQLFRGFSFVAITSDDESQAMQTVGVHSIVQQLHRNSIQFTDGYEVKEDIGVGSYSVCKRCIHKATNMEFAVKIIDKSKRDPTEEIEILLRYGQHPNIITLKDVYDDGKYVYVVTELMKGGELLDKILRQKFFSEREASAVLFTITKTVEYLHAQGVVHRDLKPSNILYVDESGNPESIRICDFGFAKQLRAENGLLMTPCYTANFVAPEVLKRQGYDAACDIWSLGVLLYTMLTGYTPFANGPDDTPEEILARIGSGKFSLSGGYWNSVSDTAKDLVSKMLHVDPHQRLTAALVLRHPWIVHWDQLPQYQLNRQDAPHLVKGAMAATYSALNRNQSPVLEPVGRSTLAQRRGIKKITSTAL

[12] = molecular target: Mitogen-activated protein kinase 9 (Homo sapiens) (UniProt P45984); test: Inhibition of JNK2 conserved Lys2 (DLKPSNIVVK) in human PBMC at 0.1 uM
[13] = molecular target: T2, Mitogen-activated protein kinase kinase kinase 5 (Homo sapiens) (UniProt Q99683); test: Inhibition of MAP3K5 conserved Lys2 (DIKGDNVLINTYSGVLK) in human PBMC at 0.1 uM
T2 sequence (whole entry): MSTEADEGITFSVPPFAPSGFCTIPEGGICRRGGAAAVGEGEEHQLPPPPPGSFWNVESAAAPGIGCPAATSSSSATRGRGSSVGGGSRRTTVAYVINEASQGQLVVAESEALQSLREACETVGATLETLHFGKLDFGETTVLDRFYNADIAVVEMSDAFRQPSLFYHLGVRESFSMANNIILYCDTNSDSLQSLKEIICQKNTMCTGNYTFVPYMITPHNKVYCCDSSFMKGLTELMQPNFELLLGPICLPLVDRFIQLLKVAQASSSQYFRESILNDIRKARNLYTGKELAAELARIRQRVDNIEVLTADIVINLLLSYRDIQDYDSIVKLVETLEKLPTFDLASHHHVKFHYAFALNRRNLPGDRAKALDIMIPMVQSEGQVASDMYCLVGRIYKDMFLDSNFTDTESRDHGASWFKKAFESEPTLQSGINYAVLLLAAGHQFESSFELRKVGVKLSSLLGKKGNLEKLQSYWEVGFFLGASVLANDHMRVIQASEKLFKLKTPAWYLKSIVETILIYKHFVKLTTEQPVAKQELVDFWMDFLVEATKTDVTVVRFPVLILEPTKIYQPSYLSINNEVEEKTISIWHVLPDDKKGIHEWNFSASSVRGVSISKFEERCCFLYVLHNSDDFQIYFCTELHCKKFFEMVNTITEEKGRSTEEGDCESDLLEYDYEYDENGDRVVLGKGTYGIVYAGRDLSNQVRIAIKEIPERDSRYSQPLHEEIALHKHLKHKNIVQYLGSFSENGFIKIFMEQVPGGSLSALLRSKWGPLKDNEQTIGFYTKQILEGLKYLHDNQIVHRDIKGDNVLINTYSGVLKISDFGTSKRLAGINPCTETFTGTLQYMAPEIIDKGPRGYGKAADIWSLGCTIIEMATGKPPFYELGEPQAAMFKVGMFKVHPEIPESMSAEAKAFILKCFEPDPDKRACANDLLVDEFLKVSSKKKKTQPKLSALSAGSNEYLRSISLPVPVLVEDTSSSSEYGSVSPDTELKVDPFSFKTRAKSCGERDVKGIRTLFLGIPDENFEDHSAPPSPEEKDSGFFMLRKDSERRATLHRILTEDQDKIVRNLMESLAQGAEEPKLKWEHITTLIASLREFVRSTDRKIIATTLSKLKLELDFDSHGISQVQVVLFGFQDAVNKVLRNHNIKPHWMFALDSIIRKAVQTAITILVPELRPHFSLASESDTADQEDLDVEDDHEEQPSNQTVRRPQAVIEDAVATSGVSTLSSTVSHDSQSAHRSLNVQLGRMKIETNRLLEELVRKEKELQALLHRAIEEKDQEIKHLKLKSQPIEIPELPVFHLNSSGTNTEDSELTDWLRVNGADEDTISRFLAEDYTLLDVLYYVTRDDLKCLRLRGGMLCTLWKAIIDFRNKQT

[14] = molecular target: Mitogen-activated protein kinase kinase kinase 11 (Homo sapiens) (UniProt Q16584); test: Inhibition of MLK3 conserved Lys2 (DLKSNNILLLQPIESDDMEHK) in human PBMC at 0.1 uM

5'-AMP-activated protein kinase catalytic subunit alpha-1 (Homo sapiens), sequence (Q13131 whole entry, looked up): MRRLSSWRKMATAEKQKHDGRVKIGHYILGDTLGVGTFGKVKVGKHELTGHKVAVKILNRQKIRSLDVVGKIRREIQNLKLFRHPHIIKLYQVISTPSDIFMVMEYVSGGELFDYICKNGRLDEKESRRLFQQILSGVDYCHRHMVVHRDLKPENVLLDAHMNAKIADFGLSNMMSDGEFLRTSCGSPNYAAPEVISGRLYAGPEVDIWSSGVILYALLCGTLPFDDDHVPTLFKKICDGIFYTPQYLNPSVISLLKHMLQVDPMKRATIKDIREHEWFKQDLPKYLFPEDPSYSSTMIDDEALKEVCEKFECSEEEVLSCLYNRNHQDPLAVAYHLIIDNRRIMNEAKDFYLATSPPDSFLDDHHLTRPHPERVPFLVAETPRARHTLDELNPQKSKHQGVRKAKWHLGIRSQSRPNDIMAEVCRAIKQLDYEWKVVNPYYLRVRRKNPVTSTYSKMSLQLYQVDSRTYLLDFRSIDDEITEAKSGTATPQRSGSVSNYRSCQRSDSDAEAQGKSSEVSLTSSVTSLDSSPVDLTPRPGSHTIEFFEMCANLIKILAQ

Work on `CC(C)n1cc(-c2cc(-c3ccc(CN4CCOCC4)cc3)cnc2N)nn1` yielded an inhibition [1] of 13.1%, an inhibition [2] of 4.2% and an inhibition [3] of 30%. It also gave an inhibition [4] of 23.9%, an inhibition [5] of 18.6% and an inhibition [6] of 28.8%. It also gave an inhibition [7] of 10.3%, an inhibition [8] of 0% and an inhibition [9] of 10%. It also gave an inhibition [10] of -8.4%, an inhibition [11] of 22% and an inhibition [12] of 25.1%. It also gave an inhibition [13] of 11% and an inhibition [14] of 13.8%.
